The results in this text go back to PMC7354229 (ACS infectious diseases, 2020).

Where two headings read alike, the source gives them in different places.

Common to all, as to assay type: cell-based, Staphylococcus aureus
Assay [1] deals with S. aureus JE2 transposon mutant SAUSA300_1503.
In assay [2] the test system is S. aureus JE2 transposon mutant SAUSA300_1962. Briefly: MIC ratio WT/mutant.
In assay [3] the test system is S. aureus JE2 transposon mutant SAUSA300_1465. The assay is described as follows: MIC ratio WT/mutant.
In assay [4] the test system is S. aureus JE2 transposon mutant SAUSA300_0647 (vraF). The assay is described as follows: MIC ratio WT/mutant.
In assay [5] the test system is S. aureus JE2 transposon mutant SAUSA300_1037 (pheS). The assay is described as follows: MIC ratio WT/mutant.
The test system of assay [6] is S. aureus JE2 transposon mutant SAUSA300_1336.
Assay [7] relates to S. aureus JE2 transposon mutant SAUSA300_1867. Briefly: MIC ratio WT/mutant.
Assay [8] deals with S. aureus JE2 transposon mutant SAUSA300_0646 (graS). The assay is described as follows: MIC ratio WT/mutant.
Assay [9] concerns S. aureus JE2 transposon mutant SAUSA300_1898.
Assay [10] concerns S. aureus JE2 transposon mutant SAUSA300_0186 (argC).
The test system of assay [11] is S. aureus JE2 transposon mutant SAUSA300_0829 (lipA). The assay is described as follows: MIC ratio WT/mutant.
The subject of assay [12] is S. aureus JE2 transposon mutant SAUSA300_1255 (mprF). The assay is described as follows: MIC ratio WT/mutant.
In assay [13] the test system is S. aureus JE2 transposon mutant SAUSA300_0988 (trkA). The assay is described as follows: MIC ratio WT/mutant.
For assay [14], the system named is S. aureus JE2 transposon mutant SAUSA300_1036.
In assay [15] the test system is S. aureus JE2 transposon mutant SAUSA300_1967.
In another assay the test system is S. aureus. Briefly: Growth inhibition in 100% TSB.
The test system of assay [16] is S. aureus JE2 transposon mutants. Particulars: peptide at 1.56 μM, propidium iodide.

Take `CC(=O)NC[C@H]1CN(c2ccc(N3CCOCC3)c(F)c2)C(=O)O1` [Linez, linezolid]: the “Fold decrease of MIC (MIC ratio WT / mutant)” value in assay [1] is reported as 2 fold; in [2], 2–4 fold; in assay [3] it was 6 fold; in [4], 6 fold; in [5], 2 fold.

Consider `CN(C)c1cc(NC(=O)CNC(C)(C)C)c(O)c2c1C[C@H]1C[C@H]3[C@H](N(C)C)C(O)=C(C(N)=O)C(=O)[C@@]3(O)C(O)=C1C2=O` [Tige, tigecycline], for which the “Fold decrease of MIC (MIC ratio WT / mutant)” value turned out to be 2 fold in [6]; 2 fold in assay [7]; 2 fold in [8]; 2 fold in [1]; 2 fold in assay [9]; 4 fold in assay [2]. Also, the “Fold decrease of MIC (MIC ratio WT / mutant)” value in assay [3] is 6 fold; in assay [10], 2 fold; in assay [11] it was 2 fold; in assay [12], 2 fold; in assay [4] it was 2 fold; in assay [13], 2 fold. The entries for the “Fold decrease of MIC (MIC ratio WT / mutant)” value in assay [5], in assay [14] and in assay [15] were 2–4 fold, 2 fold and 2 fold, respectively.

Consider `NC[C@H]1O[C@H](O[C@H]2[C@H](O)[C@@H](O[C@H]3O[C@H](CO)[C@@H](O)[C@H](N)[C@H]3O)[C@H](N)C[C@@H]2N)[C@H](N)C[C@@H]1O` [Tobra, tobramycin], for which the “Fold decrease of MIC (MIC ratio WT / mutant)” value was 2 fold in assay [2]; 4 fold in assay [3]; 4 fold in [12]; 2 fold in assay [4]; 4 fold in assay [5].

For the compound `CN[C@H](CC(C)C)C(=O)N[C@H]1C(=O)N[C@@H](CC(N)=O)C(=O)N[C@H]2C(=O)N[C@H]3C(=O)N[C@H](C(=O)N[C@H](C(=O)O)c4cc(O)cc(O)c4-c4cc3ccc4O)[C@H](O)c3ccc(c(Cl)c3)Oc3cc2cc(c3O[C@@H]2O[C@H](CO)[C@@H](O)[C@H](O)[C@H]2O[C@H]2C[C@](C)(N)[C@H](O)[C@H](C)O2)Oc2ccc(cc2Cl)[C@H]1O` [Van, vancomycin], the “Fold decrease of MIC (MIC ratio WT / mutant)” value in [7] is listed as 2 fold; in [8], 2–4 fold; in [2], 2 fold; in [3] it was 4 fold; in assay [12], 2 fold; in assay [4] it was 2–4 fold. The “Fold decrease of MIC (MIC ratio WT / mutant)” value in assay [5] is recorded as 4 fold.

Consider `CC[C@H](C)[C@H](NC(=O)[C@H](CCCCN)NC(=O)[C@H](CCC(=O)O)NC(=O)[C@H](CCCCN)NC(=O)[C@H](CO)NC(=O)[C@H](CCCCN)NC(=O)[C@H](CCCNC(=N)N)NC(=O)[C@H](Cc1ccccc1)NC(=O)[C@H](Cc1ccccc1)NC(=O)[C@H](CC(=O)O)NC(=O)CNC(=O)[C@H](CC(C)C)NC(=O)[C@@H](N)CC(C)C)C(=O)NCC(=O)N[C@@H](CCCCN)C(=O)N[C@@H](CCC(=O)O)C(=O)N[C@@H](Cc1ccccc1)C(=O)N[C@@H](CCCCN)C(=O)N[C@@H](CCCNC(=N)N)C(=O)N[C@H](C(=O)N[C@H](C(=O)N[C@@H](CCC(N)=O)C(=O)N[C@@H](CCCNC(=N)N)C(=O)N[C@H](C(=O)N[C@@H](CCCCN)C(=O)N[C@@H](CC(=O)O)C(=O)N[C@@H](Cc1ccccc1)C(=O)N[C@@H](CC(C)C)C(=O)N[C@@H](CCCNC(=N)N)C(=O)N[C@@H](CC(N)=O)C(=O)N[C@@H](CC(C)C)C(=O)N[C@H](C(=O)N1CCC[C@H]1C(=O)N[C@@H](CCCNC(=N)N)C(=O)N[C@H](C(=O)N[C@@H](CCC(=O)O)C(=O)N[C@@H](CO)C(=O)O)[C@@H](C)O)C(C)C)[C@@H](C)CC)C(C)C)[C@@H](C)CC` [LL-37], for which the “Inhibition of S. aureus growth” value in the assay on S. aureus is “did not inhibit”. Further, the “Membrane permeability of mutant relative to JE2” value in [16] (mutant SAUSA300_0646) is given as “less permeable”; in assay [16] (mutants SAUSA300_0186, 0829, 1089, 1097, 1220, 1228, 1515, 1865, 1867, 1962 and 1967) it was “essentially no differences”; in [16] (mutants SAUSA300_0645, 0647 and 1503) it was “slightly more permeable”; in assay [16] (mutants SAUSA300_1036, 1037 and 1255) it was “clearly more permeable than JE2”.
